# Publication PMC12040169 (PLOS Biology, 2025)
# Assay: in vitro
# Conditions: human, hela cells, % viability
row,Compound,"viability at 28.5 h, 10 µM [%]"
1,COC(=O)Nc1ncc(CN2CCCCC2)s1 [CBK268208],111
2,O=C1CNC(=O)C2(C/C=C/C[C@H]3COCC[C@@H]3N1)CCN(C(=O)c1cccc(Cl)c1)CC2 [CBK292066],111
3,Nc1nc(OCCn2cccc2)cnc1-c1ccsc1 [CBK145162],92.1
4,CSc1ccc(-c2nc(C)c(C(C)=O)n2O)cc1 [CBK288356],92.5
5,N#CCCn1cc(C(=O)N2CCCCC2)c(-c2cc3ccccc3o2)n1 [CBK306206],95.1
6,O=C(N/N=C/c1c(Cl)cccc1Cl)c1cc(Br)ccc1O [CBK262022],95.1
7,COc1cccc(C2(NC(=O)CCn3cccn3)CCCC2)c1 [CBK283660],94.5
8,CCCCN(C)c1nccnc1-c1ccncc1 [CBK037655],93.4
9,CCC(=O)NCc1csc(-c2ccccc2)n1 [CBK092344],90.1
10,CC1(C)[C@H](Cc2cc(CC3CCCCC3)on2)C[C@@H]1NC(=O)C1CCCC1 [CBK289256],84.7
11,Cc1cccc(CN2CCC(NC(=O)c3cn(C(C)(C)C)nn3)CC2)c1 [CBK305927],92
12,Cc1nc[nH]c1CN1CCCN(S(=O)(=O)c2ccc(-n3cnc(Cl)c3Cl)cc2)CC1 [CBK063087],91.7
13,O=C(NCCN1CCOCC1)c1cc(-c2ccc(F)cc2)nc2ccc(Br)cc12 [CBK294450],89.9
14,COC(=O)c1ccc(NC(=O)CCN2C(=O)c3cccc([N+](=O)[O-])c3C2=O)cc1 [CBK263137],98.1
15,COc1ccc(C(=O)N[C@H]2C[C@@H]3C(=O)N[C@H]4CCN(C(=O)C5CCC5)[C@@H]4C(=O)N3C2)cc1 [CBK289266],89.3
16,CNCC(=O)N(CCc1cc(C(F)(F)F)cc(C(F)(F)F)c1)c1ccc2c(c1)OCO2 [CBK001038T],120
17,COC(=O)CCc1ccc(S(=O)(=O)N2CCN(Cc3cc(C)c(O)c(C)c3)CC2)cc1 [CBK062814],113
18,CCc1cc(C(=O)OC)c(NC(=O)CC2Nc3cccc4cccc(c34)NC2=O)s1 (stereo not drawn) [CBK267563],59.8
19,FC(F)(F)C1CN(C2CCCCC2)C(=S)S1 (stereo not drawn) [CBK009719],84.2
20,C(=N\N=C(/c1ccccc1)C12CN3CN(CN(C3)C1)C2)/c1ccc2c(c1)OCO2 [CBK261816],102
21,O=C(Cc1ccccc1)Nc1nnc(C2=COCCO2)o1 [CBK287416],92.2
22,O=c1cc(N2CCN(CC3(O)CCNC3)CC2)c(-c2ccccc2)n[nH]1 (stereo not drawn) [CBK307088],107
23,O=C(O)c1cccc(S(=O)(=O)N2CCC(C(=O)O)CC2)c1 [CBK267199],93.6

row,Compound,"viability at 28.5 h, 10 µM [%]"
1,Cc1ccc(-c2cncc(NCc3cccs3)n2)cc1C [CBK065967],106
2,CN(C)c1nc2c(ncn2C2OC(CO)C(O)C2O)c(=O)[nH]1 (stereo not drawn) [CBK201295],96.3
3,COc1ccc(-n2nnnc2SCc2ccc(Cl)cc2)cc1 [CBK101068],60.7
4,Cc1cc(S(=O)(=O)N2CCCC2)ccc1OCC(=O)NCc1ccncc1 [CBK269886],91.3
5,FC(F)(F)c1cccnc1OCc1cccnc1 [CBK115780],101
6,S=C1C=C(c2ccccc2)Nc2ccccc2N1 [CBK288438],87.2
7,CC(=O)c1ccc2c3c(cccc13)CC(N(C)C)C2 (stereo not drawn) [CBK005691S],95.8
8,COC(=O)c1cccc2c3c([nH]c12)CCCC3 [CBK000423],87.8
9,CC(=O)Oc1ccc2c(=O)c(C3NC(C(=O)O)Cc4c3[nH]c3ccccc43)coc2c1 (stereo not drawn) [CBK293948],120
10,COc1cccc(CC(=O)N2CCC(Cc3ccccc3-c3ccccc3)(C(N)=O)CC2)c1 [CBK285730],96.7
11,CC(C)N1CCC[C@@H]2CN(C(=O)c3cccc(C(F)(F)F)c3)C[C@@H]21 [CBK285525],96
12,Cc1cc(NO)nc(-c2ccc(Br)cc2)n1 [CBK261713],97.6
13,O=C1Oc2nc3ccccc3cc2CN1C1CC1 [CBK282870],87.9
14,c1csc(N2CCCN(c3nccn4cnnc34)CC2)n1 [CBK305190],82.4
15,CCOC(=O)Cn1c(C)nc(C)cc1=O [CBK012419],103
16,CCN(CC)CCn1c2ccc(C)cc2c2nc(C)sc21 [CBK269764C],99.7
17,CC(=O)Nc1ccc(Nc2ccc([N+](=O)[O-])cc2[N+](=O)[O-])cc1 [CBK260886],84.6
18,COc1cc(/C=C(\C#N)c2nc3ccccc3n2C)cc([N+](=O)[O-])c1O [CBK263893],91.4
19,O=C1NC2CS(=O)(=O)CC2N1Cc1ccccc1 (stereo not drawn) [CBK009306],85.7
20,Cc1cn2c3c(=O)n(CCN4CCCCC4)c(=O)n(C)c3nc2n1CC1CCCO1 (stereo not drawn) [CBK269820],91.9
21,Cc1ccc2ccccc2c1CN(/N=N/c1nonc1C)c1nonc1C [CBK262412],99.6
22,O=C(C1CCCN(c2nc3c(-c4ccccc4)csc3c(=O)[nH]2)C1)N1CCOCC1 (stereo not drawn) [CBK215582],83.7
23,O=C(NCc1ccc(-c2csnn2)cc1)c1cccc(C(F)(F)F)c1 [CBK149293],87.2

row,Compound,"viability at 28.5 h, 10 µM [%]"
1,O=C(CC1CC1)NC(c1ccccc1)c1ccccn1 (stereo not drawn) [CBK144108],103
2,Cc1nccn1CCNC(=O)CCc1nc2ccccc2n1C [CBK281978],95.3
3,C[N+]1(CC(=O)c2ccccc2)C2CCC1CC(OC(=O)C(O)c1ccccc1)C2 (stereo not drawn) [CBK022712C],120
4,COc1cc(C#N)ccc1OCc1ccccc1 [CBK002577],62
5,NC(=O)c1c(NC(=O)NCc2cccnc2)sc2c1CCC2 [CBK307578],70.3
6,FC(F)(F)c1cccc(OCc2nnn[nH]2)c1 [CBK269466],88.4
7,Cn1c(=O)[nH]c(=O)c2c1nc(SCCN1CCOCC1)n2CCCc1ccccc1 [CBK269234],95.5
8,CSc1nnc(CCCNC(=O)c2cccc(C#N)c2)n1C1CCCC1 [CBK305459],80.9
9,Cn1cc(-c2ccc(C3CCCCN3Cc3ccnc4ccccc34)cn2)cn1 (stereo not drawn) [CBK285672],93.3
10,C=CCNc1nccnc1-c1cccc(O)c1 [CBK088505],88.2
11,CC(C)(C)NC(=O)[C@@H]1CNC[C@]12Cc1ccccc1C(=O)N2 [CBK285294],103
12,COc1ccccc1CCNC(=O)c1cnccn1 [CBK268147],59.7
13,CCc1csc(C(=Cc2ccc(OC)cc2)C(N)=O)n1 [CBK001010],86.9
14,Cc1cc(C)c(S(=O)(=O)Nc2nnc(C(F)(F)F)s2)c(C)c1 [CBK045507],99.7
15,CN(C(=O)CN1CCN(c2cc(-c3cc4ccccc4o3)ncn2)CC1)c1ccccc1 [CBK091128],94
16,O=C(Cc1ccn[nH]1)N1CC(O)CC1c1cc(F)ccc1F (stereo not drawn) [CBK304872],92.3
17,CC(=O)NCCSc1nccnc1NC(C)C [CBK105289],92.8
18,CCOC(=O)N(C)c1c(CC)nc2c(OCC(=O)C(C)(C)C)cccn12 [CBK147382],94.2
19,CCN(Cc1cnn(C)c1)S(=O)(=O)c1ccc2c(c1)CCCC(=O)N2 [CBK304782],100
20,COc1ccc(C(=O)CN2CCC3(CC2)CC(=O)c2cc(Br)ccc2O3)cc1 [CBK162265],114
21,CCc1nc2ccc(C(=O)N3CCC(O)(Cc4ccccc4)CC3)cn2c1N(CC)C(=O)CCC1CCCC1 [CBK146854],88.1
22,c1ccc(-c2cccc(-c3cc(N4CCN(CCN5CCCC5)CC4)ncn3)c2)cc1 [CBK091164],99.7
23,O=C(NC(c1ccc(F)cc1)c1cccs1)c1ccccn1 (stereo not drawn) [CBK295636],106

row,Compound,"viability at 28.5 h, 10 µM [%]"
1,CC(C)[C@@H](CO)Nc1nc(-c2cc(C(F)(F)F)cc(C(F)(F)F)c2)cn2ccnc12 [CBK037496],84.9
2,O=C(N[C@H]1CCN2C(=O)c3cc(Br)ccc3NC(=O)[C@H]12)c1cccc(F)c1 [CBK289334],82.3
3,CCOc1ccccc1C(=O)N1CCC(c2cc(C(=O)NC(C)C)c3ccccc3n2)C1 (stereo not drawn) [CBK285918],106
4,CCOCCCNC(=O)c1ccc(-c2cc(Oc3ccc(OC)cc3)ncn2)cc1 [CBK291209],100
5,CN(C)Cc1ccccc1Cn1cncc1-c1cnn(C)c1 [CBK281764],99.5
6,COc1ccc2c(c1)C(C[C@H]1CN(C(=O)C3CC3)CC[C@H]1CC(=O)O)=NCC2 [CBK289157],85.7
7,O=C(CO/N=C\c1cccc([N+](=O)[O-])c1)Nc1ccccc1C(=O)O [CBK262051],91.7
8,Cc1nn(C)c2ncc(S(=O)(=O)NCC(N)c3ccc(F)cc3F)cc12 (stereo not drawn) [CBK304303C],99.1
9,Cc1cccc(OCCCC(=O)Nc2ccc(S(N)(=O)=O)cc2)c1C [CBK267963],90.8
10,Cc1cc(C)nc(NC(=O)c2cccc(Cl)c2)n1 [CBK288165],90
11,CC(C)CN1CC(C(=O)NCc2ccccc2-n2ccnc2)CC1=O (stereo not drawn) [CBK282189],104
12,O=S(=O)(c1ccccc1)N(Cc1cc2ccccc2nc1O)CC1CCCO1 (stereo not drawn) [CBK269424],93.3
13,CCc1c(C)nc2c(C(=O)NCCCN3CCCC3=O)cnn2c1C [CBK162128],96.2
14,CN1CCC(=NNC(=O)c2cc(O)c(O)c(O)c2)CC1 [CBK262660],78.6
15,CN(C)C(C(=O)NCC1(C)COC1)c1ccc(Cl)cc1 (stereo not drawn) [CBK281753],102
16,O=C(c1ccco1)N1CCC(n2cnc3cccnc32)CC1 [CBK283939],91.6
17,CN1CCN(CC(CC(=O)Nc2c(F)cccc2F)C(=O)O)CC1 (stereo not drawn) [CBK286867],92
18,CCc1cn(CC(C(=O)OC)N(C)C)c(=O)[nH]c1=O (stereo not drawn) [CBK289706],107
19,COc1ccc(-c2nc(=S)c3c(n2CCCN(C)C)CC(C)(C)OC3)cc1 [CBK267844],104
20,CC(=O)Nc1cccc(CN2CCCC2CN2CCCC2CO)c1 (stereo not drawn) [CBK305163],98.9
21,Cc1ccnn1CCC(=O)NC1(c2ccc(F)cc2)CCCC1 [CBK283600],115
